# Assay results from patent US9156796B2, “Benzoimidazole-carboxylic acid amide derivatives as APJ receptor modulators” (SANOFI, priority 2013, dated 2015).
# Molecular target: T1, human apelin receptor (Homo sapiens, UniProt P35414)
# T1 construct: expressed in transfected cells
# T1 sequence (P35414 1-380): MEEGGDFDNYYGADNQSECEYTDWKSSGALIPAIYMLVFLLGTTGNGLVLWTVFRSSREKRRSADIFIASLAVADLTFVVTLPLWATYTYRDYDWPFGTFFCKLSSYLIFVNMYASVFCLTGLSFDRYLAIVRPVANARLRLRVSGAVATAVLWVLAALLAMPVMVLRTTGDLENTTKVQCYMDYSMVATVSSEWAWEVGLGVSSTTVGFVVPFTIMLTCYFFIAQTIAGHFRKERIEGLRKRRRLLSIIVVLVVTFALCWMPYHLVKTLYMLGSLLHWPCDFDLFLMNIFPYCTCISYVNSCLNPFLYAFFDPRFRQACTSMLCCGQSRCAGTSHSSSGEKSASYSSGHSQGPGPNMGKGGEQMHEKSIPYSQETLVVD
# Assay: Determination of agonism on the human apelin receptor by a calcium fluorescence assay (FLIPR)
# Assay type: cell-based
# Settings: HEK293 cells stably transfected with human apelin receptor and Giaq protein, Fluo-4 calcium fluorescence, read-out: EC50 (APJ agonism)
# Summary of the method: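 Agonist EC50s come from peak intracellular calcium transients recorded by FLIPR Tetra, scaled to the 1 μM apelin-13 maximum per plate. Test system: HEK293 stably transfected with human apelin receptor plus Giaq, Fluo-4-loaded (4 μM, 1 h, 37 °C, pH 7.4 buffer with probenecid); ≥7 concentrations, triplicates.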
row,Compound,EC50 [nM]
1,"CCC(CC)n1c(Cc2cccs2)nc2cc(C(=O)N[C@@H](CC(C)C)C(=O)NC3CCN(Cc4ccccc4)CC3)ccc21 [Example 313, 1-(1-Ethyl-propyl)-2-thiophen-2-ylmethyl-1H-benzoimidazole-5-carboxylic acid [(S)-1-(1-benzyl-piperidin-4-ylcarbamoyl)-3-methyl-butyl]-amide]",1890
2,"CCC(CC)n1c(Cc2cccs2)nc2cc(C(=O)N[C@@H](CC(C)C)C(=O)N3CCN(c4ccccc4OC)CC3)ccc21 [Example 315, 1-(1-Ethyl-propyl)-2-thiophen-2-ylmethyl-1H-benzoimidazole-5-carboxylic acid {(S)-1-[4-(2-methoxy-phenyl)-piperazine-1-carbonyl]-3-methyl-butyl}-amide]",2450
3,"CCC(CC)n1c(Cc2cccs2)nc2cc(C(=O)N[C@@H](CC(C)C)C(=O)Nc3cccc(N(C)C)c3)ccc21 [Example 316, 1-(1-Ethyl-propyl)-2-thiophen-2-ylmethyl-1H-benzoimidazole-5-carboxylic acid [(S)-1-(3-dimethylamino-phenylcarbamoyl)-3-methyl-butyl]-amide]",22000
4,"CCC(CC)n1c(Cc2cccs2)nc2cc(C(=O)N[C@@H](CC(C)C)C(=O)NC3CCN(c4ccccc4)CC3)ccc21 [Example 317, 1-(1-Ethyl-propyl)-2-thiophen-2-ylmethyl-1H-benzoimidazole-5-carboxylic acid [(S)-3-methyl-1-(1-phenyl-piperidin-4-ylcarbamoyl)-butyl]-amide]",14000
5,"CCC(CC)n1c(Cc2cccs2)nc2cc(C(=O)N[C@@H](CC(C)C)C(=O)N3CCN(C4CCCCC4)CC3)ccc21 [Example 318, 1-(1-Ethyl-propyl)-2-thiophen-2-ylmethyl-1H-benzoimidazole-5-carboxylic acid [(S)-1-(4-cyclohexyl-piperazine-1-carbonyl)-3-methyl-butyl]-amide]",2860
6,"CCC(CC)n1c(Cc2cccs2)nc2cc(C(=O)N[C@@H](CC(C)C)C(=O)NC3CCN(Cc4ccccc4)C3)ccc21 (stereo partly drawn) [Example 319, 1-(1-Ethyl-propyl)-2-thiophen-2-ylmethyl-1H-benzoimidazole-5-carboxylic acid [(S)-1-(1-benzyl-pyrrolidin-3-ylcarbamoyl)-3-methyl-butyl]-amide]",1520
7,"CCC(CC)n1c(Cc2cccs2)nc2cc(C(=O)N[C@@H](CC(C)C)C(=O)N3CCN(C4CCCC4)CC3)ccc21 [Example 321, 1-(1-Ethyl-propyl)-2-thiophen-2-ylmethyl-1H-benzoimidazole-5-carboxylic acid [(S)-1-(4-cyclopentyl-piperazine-1-carbonyl)-3-methyl-butyl]-amide]",1520
8,"CCC(CC)n1c(Cc2cccs2)nc2cc(C(=O)N[C@@H](CC(C)C)C(=O)N3CCCN(Cc4ccccc4)CC3)ccc21 [Example 323, 1-(1-Ethyl-propyl)-2-thiophen-2-ylmethyl-1H-benzoimidazole-5-carboxylic acid [(S)-1-(4-benzyl-[1,4]diazepane-1-carbonyl)-3-methyl-butyl]-amide]",6740
9,"CCC(CC)n1c(Cc2cccs2)nc2cc(C(=O)N[C@@H](CC(C)C)C(=O)N3CCCN(Cc4ccc(F)cc4)CC3)ccc21 [Example 324, 1-(1-Ethyl-propyl)-2-thiophen-2-ylmethyl-1H-benzoimidazole-5-carboxylic acid {(S)-1-[4-(4-fluoro-benzyl)-[1,4]diazepane-1-carbonyl]-3-methyl-butyl}-amide]",16800
10,"CCC(CC)n1c(Cc2cccs2)nc2cc(C(=O)N[C@@H](CC(C)C)C(=O)N3C[C@H]4C[C@@H]3CN4Cc3ccccc3)ccc21 [Example 325, 1-(1-Ethyl-propyl)-2-thiophen-2-ylmethyl-1H-benzoimidazole-5-carboxylic acid [(S)-1-((1R,4R)-5-benzyl-2,5-diaza-bicyclo[2.2.1]heptane-2-carbonyl)-3-methyl-butyl]-amide]",4410
11,"CCC(CC)n1c(Cc2cccs2)nc2cc(C(=O)N[C@@H](CC(C)C)C(=O)N3CC4CC3CN4c3cccc(F)c3)ccc21 (stereo partly drawn) [Example 326, 1-(1-Ethyl-propyl)-2-thiophen-2-ylmethyl-1H-benzoimidazole-5-carboxylic acid {(S)-1-[5-(3-fluoro-phenyl)-2,5-diaza-bicyclo[2.2.1]heptane-2-carbonyl]-3-methyl-butyl}-amide]",16400
12,"CCC(CC)n1c(Cc2cccs2)nc2cc(C(=O)N[C@@H](CC(C)C)C(=O)NCC3CN(Cc4ccccc4)CCO3)ccc21 (stereo partly drawn) [Example 330, 1-(1-Ethyl-propyl)-2-thiophen-2-ylmethyl-1H-benzoimidazole-5-carboxylic acid {(S)-1-[(4-benzyl-morpholin-2-ylmethyl)-carbamoyl]-3-methyl-butyl}-amide]",2480
13,"CCC(CC)n1c(Cc2cccs2)nc2cc(C(=O)N[C@@H](CC(C)C)C(=O)Nc3cccc(N4CCOCC4)c3)ccc21 [Example 333, 1-(1-Ethyl-propyl)-2-thiophen-2-ylmethyl-1H-benzoimidazole-5-carboxylic acid [(S)-3-methyl-1-(3-morpholin-4-yl-phenylcarbamoyl)-butyl]-amide]",27300

# The next compounds have a lower EC50 than those just listed; values first:
row,EC50 [nM],Compound
1,474,"CCC(CC)n1c(Cc2cccs2)nc2cc(C(=O)N[C@@H](CC(C)C)C(=O)NC(C)CCCN(CC)CC)ccc21 (stereo partly drawn) [Example 314, 1-(1-Ethyl-propyl)-2-thiophen-2-ylmethyl-1H-benzoimidazole-5-carboxylic acid [(S)-1-(4-diethylamino-1-methyl-butylcarbamoyl)-3-methyl-butyl]-amide]"
2,386,"CCC(CC)n1c(Cc2cccs2)nc2cc(C(=O)N[C@@H](CC(C)C)C(=O)NCCCN3CCC(C)CC3)ccc21 [Example 320, 1-(1-Ethyl-propyl)-2-thiophen-2-ylmethyl-1H-benzoimidazole-5-carboxylic acid {(S)-3-methyl-1-[3-(4-methyl-piperidin-1-yl)-propylcarbamoyl]-butyl}-amide]"
3,244,"CCC(CC)n1c(Cc2cccs2)nc2cc(C(=O)N[C@@H](CC(C)C)C(=O)N3CC[C@H](N(C)C)C3)ccc21 [Example 322, 1-(1-Ethyl-propyl)-2-thiophen-2-ylmethyl-1H-benzoimidazole-5-carboxylic acid [(S)-1-((S)-3-dimethylamino-pyrrolidine-1-carbonyl)-3-methyl-butyl]-amide]"
4,111,"CCC(CC)n1c(Cc2cccs2)nc2cc(C(=O)N[C@@H](CC(C)C)C(=O)NC3CCN(C)CC3)ccc21 [Example 327, 1-(1-Ethyl-propyl)-2-thiophen-2-ylmethyl-1H-benzoimidazole-5-carboxylic acid [(S)-3-methyl-1-(1-methyl-piperidin-4-ylcarbamoyl)-butyl]-amide]"
5,1270,"CCC(CC)n1c(Cc2cccs2)nc2cc(C(=O)N[C@@H](CC(C)C)C(=O)NC3CCN(CCc4ccc(OC)cc4)CC3)ccc21 [Example 328, 1-(1-Ethyl-propyl)-2-thiophen-2-ylmethyl-1H-benzoimidazole-5-carboxylic acid ((S)-1-{1-[2-(4-methoxy-phenyl)-ethyl]-piperidin-4-ylcarbamoyl}-3-methyl-butyl)-amide]"
6,362,"CCC(CC)n1c(Cc2cccs2)nc2cc(C(=O)N[C@@H](CC(C)C)C(=O)N3CCC(N(CC)CC)C3)ccc21 (stereo partly drawn) [Example 329, 1-(1-Ethyl-propyl)-2-thiophen-2-ylmethyl-1H-benzoimidazole-5-carboxylic acid [(S)-1-(3-diethylamino-pyrrolidine-1-carbonyl)-3-methyl-butyl]-amide]"
7,267,"CCCCN1CCC(CNC(=O)[C@H](CC(C)C)NC(=O)c2ccc3c(c2)nc(Cc2cccs2)n3C(CC)CC)CC1 [Example 331, 1-(1-Ethyl-propyl)-2-thiophen-2-ylmethyl-1H-benzoimidazole-5-carboxylic acid {(S)-1-[(1-butyl-piperidin-4-ylmethyl)-carbamoyl]-3-methyl-butyl}-amide]"
8,692,"CCC(CC)n1c(Cc2cccs2)nc2cc(C(=O)N[C@@H](CC(C)C)C(=O)NCCCN3CC(C)CC(C)C3)ccc21 (stereo partly drawn) [Example 332, 1-(1-Ethyl-propyl)-2-thiophen-2-ylmethyl-1H-benzoimidazole-5-carboxylic acid {(S)-1-[3-(3,5-dimethyl-piperidin-1-yl)-propylcarbamoyl]-3-methyl-butyl}-amide]"
9,412,"CCC(CC)n1c(Cc2cccs2)nc2cc(C(=O)N[C@@H](CC(C)C)C(=O)N3CCC(N4CCOCC4)CC3)ccc21 [Example 334, 1-(1-Ethyl-propyl)-2-thiophen-2-ylmethyl-1H-benzoimidazole-5-carboxylic acid [(S)-3-methyl-1-(4-morpholin-4-yl-piperidine-1-carbonyl)-butyl]-amide]"
10,384,"CCC(CC)n1c(Cc2cccs2)nc2cc(C(=O)N[C@@H](CC(C)C)C(=O)N3CCC(N4CCCCCC4)CC3)ccc21 [Example 335, 1-(1-Ethyl-propyl)-2-thiophen-2-ylmethyl-1H-benzoimidazole-5-carboxylic acid [(S)-1-(4-azepan-1-yl-piperidine-1-carbonyl)-3-methyl-butyl]-amide]"
11,1260,"CCC(CC)n1c(Cc2cccs2)nc2cc(C(=O)N[C@@H](CC(C)C)C(=O)N3CCC(N(CC)Cc4ccccc4)CC3)ccc21 [Example 336, 1-(1-Ethyl-propyl)-2-thiophen-2-ylmethyl-1H-benzoimidazole-5-carboxylic acid {(S)-1-[4-(benzyl-ethyl-amino)-piperidine-1-carbonyl]-3-methyl-butyl}-amide]"
